One data set addresses T1, human 5-HT2C receptor (Homo sapiens, UniProt P28335).
T1 sequence (P28335 33-458): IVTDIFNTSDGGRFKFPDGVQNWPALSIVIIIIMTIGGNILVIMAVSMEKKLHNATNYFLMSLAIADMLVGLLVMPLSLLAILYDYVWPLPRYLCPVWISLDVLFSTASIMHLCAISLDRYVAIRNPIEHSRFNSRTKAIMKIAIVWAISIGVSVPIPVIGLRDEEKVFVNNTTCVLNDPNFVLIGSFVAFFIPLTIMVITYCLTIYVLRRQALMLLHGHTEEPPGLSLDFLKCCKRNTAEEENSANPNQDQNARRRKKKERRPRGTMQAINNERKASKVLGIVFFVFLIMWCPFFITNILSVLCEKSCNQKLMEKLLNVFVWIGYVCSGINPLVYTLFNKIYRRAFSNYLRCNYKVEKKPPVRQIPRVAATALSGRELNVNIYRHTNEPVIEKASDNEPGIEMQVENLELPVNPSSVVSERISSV
Briefly: cell-based. The note with it: Ca^2+ flux, agonist.

In the next data set the test system is C57BL/6 mice. Briefly: Head twitch response (HTR) in mice. It counts as in vivo, mouse. The note with it: SC; for ED50: 20 min, read-out: ED50 (95% CI); for ED50 / Most Efficacious Dose / Emax (95% CI): mouse HTR; for ED50 / Emax (95% CI): 20 min observation, curve fit, poor in some cases. As to the method:
Agonists of the 5-HT2A receptor are well known to induce this effect in rodents and the potency of this HTR is correlated with hallucinogenic potency in humans.
Animals. Adult male C57BL/6 mice, aged 6-8 weeks (body weight 20-25 g) were used in this experiment. Animals were housed under controlled temperatures and 12-hour light/dark cycles (lights on between 07:00-19:00 h), with ad libitum food and water. This study was carried out in strict accordance with the requirements of the Committee for the Purpose of Control and Supervision of Experiments on Animals (CPCSEA), India. All efforts were made to minimize suffering.
Drugs and Drug Administration. Compound 1 was synthesized as described above. It was administered subcutaneously (SC) dissolved in saline vehicle at a volume of 10 mL/kg. Five doses were tested, with n=6 animals/group. Doses were calculated on the basis of the freebase.
Procedure. Mice were administered one dose of the drug and immediately placed into a small open field for behavioral observation. Animals were observed continuously for 20 mins and the number of head twitches (HTs) were counted by an observer blind to the treatment condition.
Statistical Analysis. The data points shown are the mean±standard error of the mean (SEM). Analysis was performed using GraphPad Prism 6. Curves were fit using a non-linear gaussian distribution to calculate ED50 and Emax values.
Additional disclosed compounds were tested in the mouse head twitch response (HTR) assay according to the procedure described in Example 43. […] Lastly, compounds with much larger benzyl and phenethyl substituents on the amine nitrogen (e.g., 10 and 11) were low efficacy in this assay, consistent with their lower maximal efficacy in the arrestin functional assay (see Example 41).

Data set [1] has as its target T2, 5-HT2A receptor (Homo sapiens, UniProt P28223).
T2 construct: host or cells: HEK293
Briefly: cell-based. Format: cell-based. The note with it: Ca^2+ flux, agonist; read-out: 5-HT2A EC50.

The nature of data set [2]: Metabolic stability in rat liver microsomes (RLM). The note with it: for t1/2: RLM, 0.50 mg protein per mL; for microsomal CLint at 1 μM: both, rat, pooled rat liver microsomes, pH 7.4. A general note: Liver microsomes are a subcellular fraction often used to study metabolism.
Data set [3] concerns the target T2, 5-HT2A receptor. Description: PathHunter beta-arrestin recruitment assay at 5-HT2A. To be noted: for Emax / agonist type in arrestin recruitment assay (in words): 5-HT2A beta-arrestin. It counts as cell-based. As for the experimental part: The degree of arrestin bias varied substantially across the other compounds tested as well.
Arrestin Functional Assay at 5-HT2A. Recruitment of beta-arrestin was determined using a PathHunter assay at Eurofins DiscoverX (Fremont, Calif.) according to their standard protocols. PathHunter GPCR beta-arrestin assays take advantage of DiscoverX's proprietary Enzyme Fragment Complementation technology. The GPCR is fused in frame with a small enzyme donor fragment ProLink™ (PK) and co-expressed in cells stably expressing a fusion protein of beta-arrestin and the larger, N-terminal deletion mutant of beta-galactosidase. Activation of the GPCR (5-HT2A receptor in this case) stimulates binding of beta-arrestin to the PK-tagged GPCR and forces complementation of the two enzyme fragments, resulting in the formation of an active beta-galactosidase enzyme. This interaction leads to an increase in enzyme activity that can be measured using chemiluminescent PathHunter Detection Reagents. Briefly, PathHunter cells expressing 5-HT2A receptors were seeded in a volume of 20 μL into 384-well plates and incubated at 37° C. for the appropriate time prior to testing. […] Plates were then imaged on a microplate reader and the agonist activity was calculated using the following formula: % Activity=100%×(mean RLU of test sample−mean RLU of vehicle control)/(mean MAX control ligand−mean RLU of vehicle control), where RLU=relative light units.
A general note: Arrestin recruitment assays detect the binding of arrestin to an activated receptor.

Data set [4] deals with T2, 5-HT2A receptor. Briefly: biochemical. The note with it: 1 nM [^3H]ketanserin, HEK293 stable cell line; read-out: 5-HT2A Receptor Ki (nM) ([^3H]ketanserin). Format: binding. A digest of the protocol:
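Values reflect [^3H]ketanserin binding competition. Assay conditions were adapted from the literature.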

Data set [5] is described as follows: Metabolic stability in mouse liver microsomes (MLM). To be noted: 0.50 mg protein per mL; for t1/2: MLM (CD-1), 1 μM; for microsomal CLint at 1 μM: mouse, pooled mouse liver microsomes, pH 7.4, MLM (CD-1). It counts as in vitro ADME. An excerpt:
MLM Stability Pooled MLM from CD-1 mice (BIOIVT M00501) were used.

The next data set concerns the target T3, 5-HT1A receptor (Homo sapiens, UniProt P08908).
T3 construct: host or cells: CHO cells
T3 sequence (P08908 1-422): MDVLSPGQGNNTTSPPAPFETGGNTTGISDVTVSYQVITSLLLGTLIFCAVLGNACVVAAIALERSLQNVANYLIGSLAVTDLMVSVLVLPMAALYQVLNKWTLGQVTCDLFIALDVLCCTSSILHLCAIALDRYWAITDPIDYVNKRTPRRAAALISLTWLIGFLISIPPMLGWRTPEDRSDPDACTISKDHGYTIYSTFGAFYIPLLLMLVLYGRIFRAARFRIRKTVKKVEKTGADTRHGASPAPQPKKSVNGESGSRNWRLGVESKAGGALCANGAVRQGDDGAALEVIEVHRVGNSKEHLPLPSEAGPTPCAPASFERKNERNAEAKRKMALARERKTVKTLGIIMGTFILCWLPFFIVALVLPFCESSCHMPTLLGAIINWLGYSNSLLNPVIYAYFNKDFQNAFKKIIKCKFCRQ
Description: cell-based.

The next data set deals with T4, 5-HT2B receptor (Homo sapiens, UniProt P41595).
T4 construct: host or cells: HEK293
T4 sequence (P41595 whole entry): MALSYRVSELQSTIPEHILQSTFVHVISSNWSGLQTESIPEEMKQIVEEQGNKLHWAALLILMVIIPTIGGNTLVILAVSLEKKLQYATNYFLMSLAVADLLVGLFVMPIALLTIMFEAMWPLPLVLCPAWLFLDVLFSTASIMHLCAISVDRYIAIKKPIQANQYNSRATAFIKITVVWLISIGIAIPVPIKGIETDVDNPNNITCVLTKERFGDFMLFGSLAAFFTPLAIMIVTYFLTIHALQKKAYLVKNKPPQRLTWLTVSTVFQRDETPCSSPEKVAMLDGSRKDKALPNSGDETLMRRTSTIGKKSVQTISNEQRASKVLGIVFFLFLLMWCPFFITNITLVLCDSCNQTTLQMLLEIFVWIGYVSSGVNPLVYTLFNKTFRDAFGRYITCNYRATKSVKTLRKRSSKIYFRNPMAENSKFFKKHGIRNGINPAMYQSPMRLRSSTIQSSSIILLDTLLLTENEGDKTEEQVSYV
Briefly: cell-based. To be noted: Ca^2+ flux, agonist; read-out: 5-HT2B EC50.

A short description of data set [6]: Metabolic stability in human liver microsomes (HLM). The note with it: for t1/2: 1 μM, 0.50 mg protein per mL; for microsomal CLint at 1 μM: both sexes, human, pooled human liver microsomes, pH 7.4, 0.50 mg protein per mL. Format: in vitro ADME. From the text: HLM Stability. Pooled HLM from adult male and female donors (Corning 452117) were used.

Broadly, the EC50 is the concentration that produces a half-maximal response. As a reminder, the ED50 is the midpoint of the dose-response relation. One may read the microsomal CLint as a measure of how fast metabolising enzymes remove a compound, apart from limits set by blood flow. A low value points to greater metabolic stability. Broadly, the Emax is the size of the effect at its maximum, as opposed to the concentration needed. The term Ki denotes a dissociation constant, usually derived from enzyme kinetics or from competition with a known ligand.

Where two headings read alike, the source gives them in different places.

T2 sequence (P28223 whole entry): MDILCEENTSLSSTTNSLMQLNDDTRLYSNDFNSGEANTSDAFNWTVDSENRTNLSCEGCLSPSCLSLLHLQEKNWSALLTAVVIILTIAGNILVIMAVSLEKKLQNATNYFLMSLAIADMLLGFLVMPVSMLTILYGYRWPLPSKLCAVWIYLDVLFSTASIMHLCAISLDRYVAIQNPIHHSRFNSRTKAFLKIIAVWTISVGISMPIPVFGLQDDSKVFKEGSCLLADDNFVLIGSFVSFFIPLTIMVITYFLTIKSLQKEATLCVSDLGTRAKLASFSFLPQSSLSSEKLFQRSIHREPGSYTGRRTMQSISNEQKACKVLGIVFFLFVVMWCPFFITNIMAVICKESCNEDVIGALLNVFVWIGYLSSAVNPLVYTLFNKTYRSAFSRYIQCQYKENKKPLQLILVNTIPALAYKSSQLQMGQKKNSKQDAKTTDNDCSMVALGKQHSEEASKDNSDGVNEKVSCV

In the case of `CCC(CC)NC(=O)[C@@H]1C=C2c3cccc4[nH]cc(c34)C[C@H]2N(C)C1` [Int14, (6aR,9R)-7-methyl-N-(pentan-3-yl)-4,6,6a,7,8,9-hexahydroindolo[4,3-fg]quinoline-9-carboxamide], the 50% effective concentration (EC50) at human 5-HT2C receptor is 3.63 nM; at 5-HT2A receptor [1], 15.9 nM; at 5-HT2A receptor [3], 1.48 nM; at 5-HT1A receptor, 46 nM; on 5-HT2B receptor it was greater than 10000 nM. The 50% effective dose (ED50) in the data set on C57BL/6 mice was 1.47 mg/kg. Further, the “Most Efficacious Dose” value in the data set with C57BL/6 mice came to 1 mg/kg. For the same compound, in the data set on C57BL/6 mice, the “Emax (95% CI)” value is listed as 21.63 (10.59-???). For the same compound, the entries for the “t1/2” value in data set [2], in [5] and in [6] were 37.988 min, 6.07 min and 17.593 min, respectively. Also, the microsomal CLint at 1 μM in data set [2] came out at 36.5 µL/min/mg; in data set [5], 228 µL/min/mg; in [6] it was 78.8 µL/min/mg. Moreover, on 5-HT2A receptor [3], the Emax is less than 60%. On 5-HT2A receptor [3], the “agonist type in arrestin recruitment assay (in words)” value is “partial agonists”. For the same compound, the inhibitory constant (Ki) on 5-HT2A receptor [4] stood at 0.47 nM.
In the case of `CCC[C@@H](C)NC(=O)[C@@H]1C=C2c3cccc4[nH]cc(c34)C[C@H]2N(C)C1` [Int17, (6aR,9R)-7-methyl-N—((R)-pentan-2-yl)-4,6,6a,7,8,9-hexahydroindolo[4,3-fg]quinoline-9-carboxamide], the concentration giving a half-maximal response (EC50) was found to be 2.53 nM on human 5-HT2C receptor; 9.67 nM at 5-HT2A receptor [1]; 1.19 nM at 5-HT2A receptor [3]; 7.01 nM at 5-HT1A receptor (Ca^2+ flux, agonist, read-out: 5-HT1A EC50); 70.8 nM on 5-HT2B receptor. Besides, the ED50 with C57BL/6 mice was 0.00405 mg/kg. Moreover, the “Most Efficacious Dose” value in the data set on C57BL/6 mice stood at 0.32 mg/kg. In the data set on C57BL/6 mice, the “Emax (95% CI)” value is recorded as 4.96 (3.764-6.286). In the data set on C57BL/6 mice (mouse, head twitches in 20 min), the “# HTR at Most Efficacious Dose” value is reported as 6.0. The “t1/2” value in data set [2] worked out at 27.894 min; in data set [5] it was 8.252 min; in data set [6], 15.865 min. Besides, the intrinsic clearance (microsomal CLint) at 1 μM in [2] amounted to 49.7 µL/min/mg; in [5], 168 µL/min/mg; in data set [6], 87.4 µL/min/mg. Moreover, the Emax at 5-HT2A receptor [3] is less than 60%. On 5-HT2A receptor [3], the “agonist type in arrestin recruitment assay (in words)” value is listed as “partial agonists”. In addition, the Ki at 5-HT2A receptor [4] stood at 0.41 nM.

Source of the values: patent publication US20230116703A1, “NOVEL ERGOLINES AND METHODS OF TREATING MOOD DISORDERS” (priority 2021, published 2023).
